target: T1, ATR kinase (full-length ATR) (Homo sapiens, UniProt Q13535); experiment: ATR Inhibition Assay (radioactive-phosphate incorporation); assay type: biochemical; details: Ki(app); 5 nM full-length ATR, 10 μM ATP, 800 μM target peptide, 25° C.; class symbols; read-out: ATR Inhibition Ki
T1 construct: Assays were carried out at 25° C. in the presence of 5 nM full-length ATR
Procedure: Compounds were screened for their ability to inhibit ATR kinase using a radioactive-phosphate incorporation assay. Assays were carried out in a mixture of 50 mM Tris/HCl (pH 7.5), 10 mM MgCl2 and 1 mM DTT. Final substrate concentrations were 10 μM [y-33P]ATP (3mCi 33P ATP/mmol ATP, Perkin Elmer) and 800 μM target peptide ([…]).
Assays were carried out at 25° C. in the presence of 5 nM full-length ATR. An assay stock buffer solution was prepared containing all of the reagents listed above, with the exception of ATP and the test compound of interest. […] The plate was pre-incubated for 10 minutes at 25° C. and the reaction initiated by addition of 15 μL [y-33P]ATP (final concentration 10 μM).
The reaction was stopped after […] by the addition of 30 μL 0.1M phosphoric acid containing 2 mM ATP. A multiscreen phosphocellulose filter 96-well plate (Millipore, Cat no. MAPHN0B50) was pretreated with 100 μL 0.2M phosphoric acid prior to the addition of 45 μL of the stopped assay mixture. The plate was washed with 5×200 μL 0.2M phosphoric acid.
After removing mean background values for all of the data points, Ki(app) data were calculated from non-linear regression analysis of the initial rate data using the Prism software package (GraphPad Prism version 3.0cx for Macintosh, GraphPad Software, San Diego Calif., USA).

T1 sequence (Q13535 whole entry): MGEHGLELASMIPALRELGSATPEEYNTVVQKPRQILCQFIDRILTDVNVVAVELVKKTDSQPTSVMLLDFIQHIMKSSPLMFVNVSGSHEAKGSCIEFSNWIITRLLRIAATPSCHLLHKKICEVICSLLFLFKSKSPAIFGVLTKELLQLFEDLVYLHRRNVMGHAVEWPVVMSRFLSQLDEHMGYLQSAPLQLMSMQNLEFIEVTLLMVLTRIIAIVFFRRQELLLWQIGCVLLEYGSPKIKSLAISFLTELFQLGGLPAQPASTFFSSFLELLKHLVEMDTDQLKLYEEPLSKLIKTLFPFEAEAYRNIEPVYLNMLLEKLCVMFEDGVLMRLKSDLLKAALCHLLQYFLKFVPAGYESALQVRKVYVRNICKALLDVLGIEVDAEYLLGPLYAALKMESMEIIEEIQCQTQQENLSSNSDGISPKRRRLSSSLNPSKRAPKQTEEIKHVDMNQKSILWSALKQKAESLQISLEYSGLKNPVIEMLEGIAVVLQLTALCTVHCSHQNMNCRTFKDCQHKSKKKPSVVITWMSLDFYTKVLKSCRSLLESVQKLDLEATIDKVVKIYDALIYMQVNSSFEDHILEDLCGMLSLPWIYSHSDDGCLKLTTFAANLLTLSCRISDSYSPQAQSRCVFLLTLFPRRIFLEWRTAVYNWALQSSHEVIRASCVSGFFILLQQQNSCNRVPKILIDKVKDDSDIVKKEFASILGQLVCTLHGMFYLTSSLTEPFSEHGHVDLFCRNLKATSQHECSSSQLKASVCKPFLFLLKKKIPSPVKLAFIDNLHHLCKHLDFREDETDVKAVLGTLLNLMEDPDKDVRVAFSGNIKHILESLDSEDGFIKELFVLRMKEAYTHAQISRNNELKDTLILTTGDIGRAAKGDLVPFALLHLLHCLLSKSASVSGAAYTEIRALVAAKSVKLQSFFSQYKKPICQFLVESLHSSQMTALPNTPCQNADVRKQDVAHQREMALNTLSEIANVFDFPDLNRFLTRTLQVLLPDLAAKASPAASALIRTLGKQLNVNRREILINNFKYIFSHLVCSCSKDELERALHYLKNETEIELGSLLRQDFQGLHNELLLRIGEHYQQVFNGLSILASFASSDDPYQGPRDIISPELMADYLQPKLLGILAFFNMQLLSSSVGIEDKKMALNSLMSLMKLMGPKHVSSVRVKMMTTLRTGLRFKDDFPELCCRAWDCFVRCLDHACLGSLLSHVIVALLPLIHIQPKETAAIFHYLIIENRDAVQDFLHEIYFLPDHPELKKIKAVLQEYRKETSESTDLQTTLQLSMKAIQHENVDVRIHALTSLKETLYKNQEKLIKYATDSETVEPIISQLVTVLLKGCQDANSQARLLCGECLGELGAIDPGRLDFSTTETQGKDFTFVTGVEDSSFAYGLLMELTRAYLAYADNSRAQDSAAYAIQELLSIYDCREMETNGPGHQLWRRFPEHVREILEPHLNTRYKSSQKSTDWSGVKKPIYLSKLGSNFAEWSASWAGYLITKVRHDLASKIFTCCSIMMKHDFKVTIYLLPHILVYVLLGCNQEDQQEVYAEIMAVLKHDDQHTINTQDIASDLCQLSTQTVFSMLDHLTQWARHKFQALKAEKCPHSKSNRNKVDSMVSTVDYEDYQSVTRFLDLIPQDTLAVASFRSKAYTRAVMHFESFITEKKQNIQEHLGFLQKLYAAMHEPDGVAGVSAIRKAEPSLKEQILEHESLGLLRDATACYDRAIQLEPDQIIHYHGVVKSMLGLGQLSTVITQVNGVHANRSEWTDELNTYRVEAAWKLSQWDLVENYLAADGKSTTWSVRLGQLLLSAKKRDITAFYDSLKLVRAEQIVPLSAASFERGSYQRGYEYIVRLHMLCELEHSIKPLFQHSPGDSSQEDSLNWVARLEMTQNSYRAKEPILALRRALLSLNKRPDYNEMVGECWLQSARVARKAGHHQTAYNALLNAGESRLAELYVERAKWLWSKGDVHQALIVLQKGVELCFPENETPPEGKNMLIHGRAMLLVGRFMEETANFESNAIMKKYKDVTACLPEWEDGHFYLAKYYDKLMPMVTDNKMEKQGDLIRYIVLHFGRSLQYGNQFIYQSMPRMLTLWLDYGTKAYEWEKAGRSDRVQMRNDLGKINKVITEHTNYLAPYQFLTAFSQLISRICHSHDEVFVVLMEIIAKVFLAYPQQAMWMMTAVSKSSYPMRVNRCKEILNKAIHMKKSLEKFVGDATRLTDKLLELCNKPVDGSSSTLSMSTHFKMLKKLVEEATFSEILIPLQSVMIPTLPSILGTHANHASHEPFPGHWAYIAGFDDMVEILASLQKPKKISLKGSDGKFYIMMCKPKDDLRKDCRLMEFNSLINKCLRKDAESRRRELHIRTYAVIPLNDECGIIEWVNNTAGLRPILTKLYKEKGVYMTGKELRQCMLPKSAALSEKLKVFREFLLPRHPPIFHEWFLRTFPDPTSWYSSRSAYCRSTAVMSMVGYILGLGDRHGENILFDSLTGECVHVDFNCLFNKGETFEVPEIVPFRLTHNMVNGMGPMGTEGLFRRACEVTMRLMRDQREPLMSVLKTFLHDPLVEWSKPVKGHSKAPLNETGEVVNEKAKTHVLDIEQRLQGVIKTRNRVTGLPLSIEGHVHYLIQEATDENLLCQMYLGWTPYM

| SMILES | Ki [nM] |
| --- | --- |
| CC(C)S(=O)(=O)c1ccc(-c2cnc3[nH]cc(C(=O)Nc4ccccn4)c3n2)cc1 [Compound I-4, 2-(4-isopropylsulfonylphenyl)-N-(2-pyridyl)-5H-pyrrolo[2,3-b]pyrazine-7-carboxamide] | 100 to 500 |
| CC(C)S(=O)(=O)c1ccc(-c2cnc3[nH]cc(C(=O)Nc4ccncc4)c3n2)cc1 [Compound I-6, 2-(4-isopropylsulfonylphenyl)-N-(4-pyridyl)-5H-pyrrolo[2,3-b]pyrazine-7-carboxamide] | 100 to 500 |
| CC(C)S(=O)(=O)c1ccc(-c2cnc3[nH]cc(C(=O)N4CCc5ccccc54)c3n2)cc1 [Compound I-7, indolin-1-yl-[2-(4-isopropylsulfonylphenyl)-5H-pyrrolo[2,3-b]pyrazin-7-yl]methanone] | 100 to 500 |
| CC(C)S(=O)(=O)c1ccc(-c2cnc3[nH]cc(C(=O)N(Cc4ccccc4)c4ccccc4)c3n2)cc1 [Compound I-8, N-benzyl-2-(4-isopropylsulfonylphenyl)-N-phenyl-5H-pyrrolo[2,3-b]pyrazine-7-carboxamide] | 500 to 5000 |
| CCN(C(=O)c1c[nH]c2ncc(-c3ccc(S(=O)(=O)C(C)C)cc3)nc12)c1ccccc1 [Compound I-9, N-ethyl-2-(4-isopropylsulfonylphenyl)-N-phenyl-5H-pyrrolo[2,3-b]pyrazine-7-carboxamide] | 500 to 5000 |
| CC(C)S(=O)(=O)c1ccc(-c2cnc3[nH]cc(C(=O)N(CCO)c4ccccc4)c3n2)cc1 [Compound I-10, N-(2-hydroxyethyl)-2-(4-isopropylsulfonylphenyl)-N-phenyl-5H-pyrrolo[2,3-b]pyrazine-7-carboxamide] | 100 to 500 |
| COc1cccc(NC(=O)c2c[nH]c3ncc(-c4ccc(S(=O)(=O)C(C)C)cc4)nc23)c1 [Compound I-11, 2-(4-isopropylsulfonylphenyl)-N-(3-methoxyphenyl)-5H-pyrrolo[2,3-b]pyrazine-7-carboxamide] | 500 to 5000 |
| COc1ccc(NC(=O)c2c[nH]c3ncc(-c4ccc(S(=O)(=O)C(C)C)cc4)nc23)cc1 [Compound I-12, 2-(4-isopropylsulfonylphenyl)-N-(4-methoxyphenyl)-5H-pyrrolo[2,3-b]pyrazine-7-carboxamide] | 100 to 500 |
| CC(C)S(=O)(=O)c1ccc(-c2cnc3[nH]cc(C(=O)Nc4cccc(C#N)c4)c3n2)cc1 [Compound I-13, N-(3-cyanophenyl)-2-(4-isopropylsulfonylphenyl)-5H-pyrrolo[2,3-b]pyrazine-7-carboxamide] | 100 to 500 |
| CC(C)S(=O)(=O)c1ccc(-c2cnc3[nH]cc(C(=O)Nc4ccc(C#N)cc4)c3n2)cc1 [Compound I-14, N-(4-cyanophenyl)-2-(4-isopropylsulfonylphenyl)-5H-pyrrolo[2,3-b]pyrazine-7-carboxamide] | 500 to 5000 |
| CC(C)S(=O)(=O)c1ccc(-c2cnc3[nH]cc(C(=O)Nc4ccccc4N)c3n2)cc1 [Compound I-19, N-(2-aminophenyl)-2-(4-isopropylsulfonylphenyl)-5H-pyrrolo[2,3-b]pyrazine-7-carboxamide] | 100 to 500 |
| CC(C)S(=O)(=O)c1ccc(-c2cnc3[nH]cc(C(=O)NCCN(C)C)c3n2)cc1 [Compound I-21, N-(2-dimethylaminoethyl)-2-(4-isopropylsulfonylphenyl)-5H-pyrrolo[2,3-b]pyrazine-7-carboxamide] | 500 to 5000 |
| CC(C)S(=O)(=O)c1ccc(-c2cnc3[nH]cc(C(=O)Nc4cccc(CO)c4)c3n2)cc1 [Compound I-26, N-[3-(hydroxymethyl)phenyl]-2-(4-isopropylsulfonylphenyl)-5H-pyrrolo[2,3-b]pyrazine-7-carboxamide] | < 100 |
| CC(C)S(=O)(=O)c1ccc(-c2cnc3[nH]cc(C(=O)N4CCCc5ccccc54)c3n2)cc1 [Compound I-27, 3,4-dihydro-2H-quinolin-1-yl-[2-(4-isopropylsulfonylphenyl)-5H-pyrrolo[2,3-b]pyrazin-7-yl]methanone] | 100 to 500 |
| CC(C)S(=O)(=O)c1ccc(-c2cnc3[nH]cc(C(=O)N4CCC(O)C4)c3n2)cc1 (stereo not drawn) [Compound I-28, (3-hydroxypyrrolidin-1-yl)-[2-(4-isopropylsulfonylphenyl)-5H-pyrrolo[2,3-b]pyrazin-7-yl]methanone] | 500 to 5000 |
| CC(C)S(=O)(=O)c1ccc(-c2cnc3[nH]cc(C(=O)NCC4CCC4)c3n2)cc1 [Compound I-29, N-(cyclobutylmethyl)-2-(4-isopropylsulfonylphenyl)-5H-pyrrolo[2,3-b]pyrazine-7-carboxamide] | < 100 |
| CC(C)S(=O)(=O)c1ccc(-c2cnc3[nH]cc(C(=O)NCC4CCCC4)c3n2)cc1 [Compound I-30, N-(cyclopentylmethyl)-2-(4-isopropylsulfonylphenyl)-5H-pyrrolo[2,3-b]pyrazine-7-carboxamide] | 500 to 5000 |
| CC(C)S(=O)(=O)c1ccc(-c2cnc3[nH]cc(C(=O)NC[C@@H]4CCCC[C@H]4O)c3n2)cc1 [Compound I-33, N-[[(1S,2R)-2-hydroxycyclohexyl]methyl]-2-(4-isopropylsulfonylphenyl)-5H-pyrrolo[2,3-b]pyrazine-7-carboxamide] | < 100 |

Next, values leading:

| Ki [nM] | SMILES |
| --- | --- |
| < 100 | CC(C)S(=O)(=O)c1ccc(-c2cnc3[nH]cc(C(=O)NCc4ccccc4)c3n2)cc1 [Compound I-1, N-benzyl-2-(4-isopropylsulfonylphenyl)-5H-pyrrolo[2,3-b]pyrazine-7-carboxamide] |
| < 100 | CC(C)S(=O)(=O)c1ccc(-c2cnc3[nH]cc(C(=O)Nc4ccccc4)c3n2)cc1 [Compound I-2, 2-(4-isopropylsulfonylphenyl)-N-phenyl-5H-pyrrolo[2,3-b]pyrazine-7-carboxamide] |
| < 100 | CC(C)S(=O)(=O)c1ccc(-c2cnc3[nH]cc(C(=O)Nc4cccnc4)c3n2)cc1 [Compound I-5, 2-(4-isopropylsulfonylphenyl)-N-(3-pyridyl)-5H-pyrrolo[2,3-b]pyrazine-7-carboxamide] |
| < 100 | Cc1ccccc1CNC(=O)c1c[nH]c2ncc(-c3ccc(S(=O)(=O)C(C)C)cc3)nc12 [Compound I-15, 2-(4-isopropylsulfonylphenyl)-N-(o-tolylmethyl)-5H-pyrrolo[2,3-b]pyrazine-7-carboxamide] |
| < 100 | Cc1cccc(CNC(=O)c2c[nH]c3ncc(-c4ccc(S(=O)(=O)C(C)C)cc4)nc23)c1 [Compound I-16, 2-(4-isopropylsulfonylphenyl)-N-(m-tolylmethyl)-5H-pyrrolo[2,3-b]pyrazine-7-carboxamide] |
| < 100 | Cc1ccc(CNC(=O)c2c[nH]c3ncc(-c4ccc(S(=O)(=O)C(C)C)cc4)nc23)cc1 [Compound I-17, 2-(4-isopropylsulfonylphenyl)-N-(p-tolylmethyl)-5H-pyrrolo[2,3-b]pyrazine-7-carboxamide] |
| < 100 | CC(C)S(=O)(=O)c1ccc(-c2cnc3[nH]cc(C(=O)Nc4ccc(N)cc4)c3n2)cc1 [Compound I-18, N-(4-aminophenyl)-2-(4-isopropylsulfonylphenyl)-5H-pyrrolo[2,3-b]pyrazine-7-carboxamide] |
| < 100 | CC(C)S(=O)(=O)c1ccc(-c2cnc3[nH]cc(C(=O)Nc4cccc(N)c4)c3n2)cc1 [Compound I-20, N-(3-aminophenyl)-2-(4-isopropylsulfonylphenyl)-5H-pyrrolo[2,3-b]pyrazine-7-carboxamide] |
| < 100 | CC(C)S(=O)(=O)c1ccc(-c2cnc3[nH]cc(C(=O)Nc4cccc(O)c4)c3n2)cc1 [Compound I-22, N-(3-hydroxyphenyl)-2-(4-isopropylsulfonylphenyl)-5H-pyrrolo[2,3-b]pyrazine-7-carboxamide] |
| < 100 | CC(C)S(=O)(=O)c1ccc(-c2cnc3[nH]cc(C(=O)Nc4ccc(CCO)cc4)c3n2)cc1 [Compound I-24, N-[4-(2-hydroxyethyl)phenyl]-2-(4-isopropylsulfonylphenyl)-5H-pyrrolo[2,3-b]pyrazine-7-carboxamide] |
| < 100 | CC(C)S(=O)(=O)c1ccc(-c2cnc3[nH]cc(C(=O)Nc4ccccc4O)c3n2)cc1 [Compound I-25, N-(2-hydroxyphenyl)-2-(4-isopropylsulfonylphenyl)-5H-pyrrolo[2,3-b]pyrazine-7-carboxamide] |

same assay, conditions: Ki(app); 5 nM full-length ATR, 10 μM ATP, 800 μM target peptide, 25° C.; given as numeric lower bound without unit; read-out: ATR Inhibition Ki

| Ki [nM] | SMILES |
| --- | --- |
| > 250 | CC(C)S(=O)(=O)c1ccc(-c2cnc3[nH]cc(C(=O)N(C)c4ccccc4)c3n2)cc1 [Compound I-3, 2-(4-isopropylsulfonylphenyl)-N-methyl-N-phenyl-5H-pyrrolo[2,3-b]pyrazine-7-carboxamide] |
| > 4000 | CC(C)S(=O)(=O)c1ccc(-c2cnc3[nH]cc(C(=O)N4CCCC(O)C4)c3n2)cc1 (stereo not drawn) [Compound I-23, (3-hydroxy-1-piperidyl)-[2-(4-isopropylsulfonylphenyl)-5H-pyrrolo[2,3-b]pyrazin-7-yl]methanone] |
| > 500 | CC(C)S(=O)(=O)c1ccc(-c2cnc3[nH]cc(C(=O)NCC4CCCCC4)c3n2)cc1 [Compound I-31, N-(cyclohexylmethyl)-2-(4-isopropylsulfonylphenyl)-5H-pyrrolo[2,3-b]pyrazine-7-carboxamide] |
| > 4000 | CC(C)S(=O)(=O)c1ccc(-c2cnc3[nH]cc(C(=O)N4CCC(CO)CC4)c3n2)cc1 [Compound I-32, [4-(hydroxymethyl)-1-piperidyl]-[2-(4-isopropylsulfonylphenyl)-5H-pyrrolo[2,3-b]pyrazin-7-yl]methanone] |

Source: patent US9096602B2, “Substituted pyrrolo[2,3-B]pyrazines as ATR kinase inhibitors” (Vertex Pharmaceuticals Incorporated, priority 2011, dated 2015)
